The values below come from paper PMC8435859 (Frontiers in Cellular and Infection Microbiology, 2021).

One data set has as its target yeast-α-glucosidase. On the set-up: method as in ref Saw C L L et al., Biopharmaceutics & Drug Disposition, 2014, 34(6):303-311. To be noted: ref Saw C L L et al., Biopharmaceutics & Drug Disposition, 2014, 34(6):303-311, cited from earlier work.
Data set [1] concerns GX_P2V. Description: microbe, parasite or virus in culture. It is filed as cell-based, Pangolin coronavirus.
The subject of the next data set is SARS-CoV-2 isolate WIV04. Put plainly: Anti-SARS-CoV-2 activity in vitro, viral yield in Vero E6 supernatant by qRT-PCR. It counts as cell-based, Severe acute respiratory syndrome coronavirus 2. To be noted: for SI: CC50/EC50, SARS-CoV-2 WIV04 in Vero E6; for EC50: SARS-CoV-2 WIV04 MOI 0.01, Vero E6, 24 h.p.i., supernatant qRT-PCR. From the text:
To verify the drugs screened through the GX_P2V drug screening alternative model, we repeatedly tested the antiviral activity of the above drugs on SARS-CoV-2. In brief, Vero E6 cells were pre-seeded in 48-well plates at a density of 5×10^4 cells/well and continued to be cultured overnight. Two hours before infection, the culture supernatant of Vero E6 cells was discarded and replaced with a DMEM medium containing different concentration gradient drugs. Vero E6 cells were continued to be cultured for 2 hours, which was conducive to the early entry of the drugs into the cells. Vero E6 cells were infected with WIV04 at a MOI=0.01 for 1 h. After discarding the supernatant, the cells were washed twice with DMEM, and the medium was changed to a DMEM medium (10%FBS) containing the corresponding concentration of the drug. After 24 h.p.i, the cell supernatant was collected. According to the manufacturer’s instructions, the viral RNA was extract using Magnetic Bead Virus RNA Extraction Kits (Shanghai Fine Gene Biotech, FG438). The viral yield in the cell supernatant was then quantified by qRT-PCR using HiSxript II One step qRT-PCR SYBRGreen Kit (Vazyme, Nanjing, China).

The next data set deals with GX_P2V NP protein. It is filed as cell-based, Pangolin coronavirus.
Data set [2] in a line: Cytotoxicity, CellTiter-Blue Cell Viability Assay. To be noted: African green monkey. On the technique in general: The colour change of resazurin is a common sign of viable cells or microbes.
In data set [3] the test system is prolyl oligopeptidase (POP). Set-up: method as in ref Zhou XQ et al., Flavonoids from Scutellaria baicalensis and their bioactivities. To be noted: concentration of 100 microM; ref Zhou XQ et al., Flavonoids from Scutellaria baicalensis and their bioactivities; cited from earlier work.
For data set [4] the following is noted: cited from earlier work; for Solubility in water (in words): library annotation.
Another data set is described as follows: in vitro. To be noted: African green monkey.
The next data set relates to Vero E6 cells. Description: Cytotoxicity, CellTiter-Blue Cell Viability Assay. To be noted: Vero E6 cells, CellTiter-Blue.
In data set [5] the test system is human tumor cell line panel. Set-up: method as in Huang Y et al., Journal of Natural Products, 1998. To be noted: library annotation, ref Huang Y et al., Journal of Natural Products, 1998; cited from earlier work.
A further data set relates to CYP3A. On the set-up: method as in Wang CP, et al. J Physiol Biochem. 2014 Sep;70(3):735-47. To be noted: ref Wang CP, et al. J Physiol Biochem. 2014 Sep;70(3):735-47; cited from earlier work.
Data set [6] relates to GX_P2V. It is filed as cell-based, Pangolin coronavirus.
The test system of the next data set is SARS-CoV-2. Set-up: method as in Cao et al., 2020. To be noted: SARS-CoV-2 in vitro; ref Cao et al., 2020; cited from earlier work.
Another data set has as its target aldose reductase. To be noted: aldose reductase; vendor library annotation; ref Aida K, et al. Planta Med, 1990; read-out: IC50; cited from earlier work.
The mark [7] stands for this setting: Pangolin coronavirus, Vero C1008, 72 h.
[8] abbreviates: Severe acute respiratory syndrome coronavirus 2, Vero C1008, 24 h.

Each structure is given as a SMILES string. Read-outs that look alike come from different tables or passages of the source.

As for `CCC/C=C1/OC(=O)c2ccccc21` [n-Butylidenephthalide], the Ki on yeast-α-glucosidase (noncompetitive fashion, read-out: K(i), yeast-α-glucosidase) is 4860 µM. At yeast-α-glucosidase (noncompetitive, read-out: IC(5), inhibition of yeast-α-glucosidase activity), the IC50 was 2350 µM.

One may read the EC50 as the midpoint of the concentration-response curve. In the case of `COc1cc(O)ccc1/C=C/C(=O)c1ccc(O)cc1` [echinatin], the values for the half-maximal effective concentration (EC50) in the data set on GX_P2V [1] (setting [7]) and in the data set on SARS-CoV-2 isolate WIV04 (setting [8]) were 20.9 µM and 7.86 µM, respectively. The compound further returned an SI in the data set with SARS-CoV-2 isolate WIV04 of 15.27. Besides, in the data set on GX_P2V NP protein, the “expression of viral NP protein” value is listed as “most viral NP proteins can be inhibited”. Besides, the CC50 in data set [2] came to 158 µM; in data set [2] (Vero E6 cells), 120 µM.

Turning to `C=C1CC[C@@H]2[C@](C)(CO)[C@H](O)CC[C@@]2(C)[C@@H]1C/C=C1/C(=O)OC[C@H]1O` [andrographolide], the SI came out at 14.11 in the data set with GX_P2V [1] (CC50/EC50, GX_P2V in Vero E6) and 8.61 with SARS-CoV-2 isolate WIV04. Moreover, the half-maximal effective concentration (EC50) stood at 6.79 µM in the data set on GX_P2V [1] (setting [7]) and 11.1 µM in the data set on SARS-CoV-2 isolate WIV04 (setting [8]). Besides, in the data set with GX_P2V NP protein, the “expression of viral NP protein” value is “achieved the same inhibitory effect”. Besides, the CC50 was 95.8 µM in data set [2] and 95.7 µM in [2] (Vero E6 cells).

Turning to `COc1c(O)cc2oc(-c3ccc(O)cc3)cc(=O)c2c1O` [4', 5,7-trihydroxy-6-methoxyflavone], the “inhibition of total prolyl oligopeptidase (POP) activity” value in [3] is 43%.

As for `O=C(/C=C/c1ccc(O)c2c1[C@@H](C(=O)O[C@H](Cc1ccc(O)c(O)c1)C(=O)O)[C@H](c1ccc(O)c(O)c1)O2)O[C@H](Cc1ccc(O)c(O)c1)C(=O)O` [lithospermic acid B], in data set [4] (ref Wang J, et al. Evidence-Based Complementary and Alternative Medicine, 2013, 2013:1-16.), the “Solubility in water (in words)” value was “lithospermic acid B is a water-soluble antioxidant from Salvia extract. It plays significant role of antioxidant effect; antiplatelet aggregation, anticoagulant, and antithrombotic effect”.

In the data set with GX_P2V [1], `CCN(CC)CCCC(C)Nc1ccnc2cc(Cl)ccc12` (centres unmarked) [chloroquine] had an SI of over 3.92. Further, the EC50 in the data set on GX_P2V [1] (setting [7]) was found to be 12.8 µM. Also, the CC50 in the data set “in vitro” was over 50 µM.

`CCC(CC)COC(=O)[C@H](C)N[P@](=O)(OC[C@H]1O[C@@](C#N)(c2ccc3c(N)ncnn23)[C@H](O)[C@@H]1O)Oc1ccccc1` [remdesivir] had an SI in the data set on GX_P2V [1] (CC50/EC50, GX_P2V in Vero E6) of over 33.78. This compound also registered an EC50 in the data set on GX_P2V [1] (setting [7]) of 0.74 µM. Moreover, in data set [2], the CC50 was over 25 µM.

Turning to `COc1c(/C=C/C(=O)c2ccc(O)cc2)ccc(O)c1O` [licochalcone B, Licochalcone B], the SI was 4.28 in the data set with GX_P2V [1] and 6.86 in the data set on SARS-CoV-2 isolate WIV04. For the same compound, the EC50 was found to be 24.9 µM with GX_P2V [1] (read-out: EC50) and 15.5 µM in the data set with SARS-CoV-2 isolate WIV04. Further, the “expression of viral NP protein” value in the data set with GX_P2V NP protein is listed as “most viral NP proteins can be inhibited”. In the data set with Vero E6 cells, this compound had a CC50 of 106 µM.

Consider `COc1ccc(-c2cc(=O)c3c(O)cc(O[C@@H]4O[C@H](CO)[C@@H](O)[C@H](O)[C@H]4O[C@@H]4O[C@@H](C)[C@H](O)[C@@H](O)[C@H]4O)cc3o2)cc1O` [Neodiosmin], for which the aqueous solubility in data set [4] (ref Mencherini T, et al. Journal of Agricultural and Food Chemistry, 2013, 61(8):1686-1693) was 1. Neodiosmin has poor aqueous solubility but exerts a good debittering effect and is a strong antioxidant with potential applications in foods, beverages, and pharmaceutical preparations.

On to `CC(C)C1=CC(=O)[C@](C)([C@H]2[C@H](O)C[C@@]3(C)[C@@H]4CC=C5[C@@H](CC[C@@H](O[C@@H]6OC[C@@H](O)[C@H](O)[C@H]6O[C@@H]6O[C@@H](C)[C@H](O)[C@@H](O)[C@H]6O)C5(C)C)[C@]4(C)C(=O)C[C@]23C)O1` [Picfeltarraenin IA], for which, in data set [5], the “cytotoxic activity in vitro” value was 1. Picfeltarraenin IB and Picfeltarraenin IA displayes no cytotoxic activity in vitro human tumor cell line panel.

For the compound `COc1cc2c(c(OC)c1OC)-c1c(cc(OC)c(OC)c1OC)C[C@H](C)[C@H](C)C2` [Schizandrin A], in the data set on CYP3A, the IC50 was 6.6 µM and the Ki is 5.83 µM.

For the compound `Cc1c(O)cccc1C(=O)N[C@@H](CSc1ccccc1)[C@H](O)CN1C[C@H]2CCCC[C@H]2C[C@H]1C(=O)NC(C)(C)C` [nelfinavir], the SI in the data set with GX_P2V [1] (CC50/EC50, GX_P2V in Vero E6) stood at 5.86. Besides, the EC50 with GX_P2V [1] (setting [7]) was 6.71 µM. The CC50 in [2] turned out to be 39.3 µM.

The compound `CCN(CCO)CCCC(C)Nc1ccnc2cc(Cl)ccc12` (centres unmarked) [hydroxychloroquine] had an SI in the data set with GX_P2V [1] (CC50/EC50, GX_P2V in Vero E6) of 9.157. This compound gave an EC50 in the data set on GX_P2V [1] (setting [7]) of 6.59 µM. The same compound gave a CC50 in data set [2] of 60.3 µM.

Take `COc1c(O[C@@H]2O[C@H](C(=O)O)[C@@H](O)[C@H](O)[C@H]2O)cc2oc(-c3ccccc3)cc(=O)c2c1O` [Oroxylin A 7-O-beta-D-glucuronide]: in data set [3], the “inhibition of total prolyl oligopeptidase (POP) activity” value is 34%.

As for `CO[C@H]1O[C@@H]2O[C@@]3(C)CC[C@H]4[C@H](C)CC[C@@H]([C@H]1C)[C@@]24OO3` [artemether, reference compound], the “stage of action in time-of-addition assay” value with GX_P2V [6] was “functioned on both entry and post-entry stages”. The midpoint of the response in the data set on GX_P2V [1] (setting [7]), the EC50, lay at 3.7 µM. The “expression of viral NP protein” value in the data set on GX_P2V NP protein was “almost completely inhibited”. The same compound returned a CC50 in [2] (Vero E6 cells) of over 200 µM.

Take `C[C@H]1[C@H](OC(=O)CCC(=O)O)O[C@@H]2O[C@@]3(C)CC[C@H]4[C@H](C)CC[C@@H]1[C@@]24OO3` [artesunate, reference compound]: in [4] (ref Xu N, et al. Int J Med Sci. 2015, 12(6):524-529.), the “Solubility in water (in words)” value was “Artesunate is part of the artemisinin group of drugs that treat malaria. It is a semi-synthetic derivative of artemisinin that is water-soluble and may therefore be given by injection. It is on the World Health Organization's List of Essential Medicines”. Moreover, the EC50 with SARS-CoV-2 is 13 ± 5.3 µM; with GX_P2V [1] (setting [7]), 10.1 µM; in the data set on SARS-CoV-2 isolate WIV04 (setting [8]), 16.2 µM. In the data set with SARS-CoV-2 isolate WIV04, the SI came to 7.84. The “expression of viral NP protein” value in the data set on GX_P2V NP protein is on record as “most viral NP proteins can be inhibited”. Also, the CC50 in data set [2] and in [2] (Vero E6 cells) was 127 µM each time.

Consider `Cc1cccc(C)c1OCC(=O)N[C@@H](Cc1ccccc1)[C@@H](O)C[C@H](Cc1ccccc1)NC(=O)[C@H](C(C)C)N1CCCNC1=O` [lopinavir], for which, in the data set on GX_P2V [1] (CC50/EC50, GX_P2V in Vero E6), the SI was over 2.13. This compound also displayed an EC50 in the data set with GX_P2V [1] (setting [7]) of 11.7 µM. In data set [2], this compound had a CC50 of over 25 µM.

Turning to `O=C(/C=C/c1ccc(O)cc1)c1ccc(O)cc1O` [Isoliquiritigenin], the IC50 at aldose reductase is 0.32 µM.

`C=C1C(=O)O[C@@]23[C@H]1CC[C@@H](C)[C@@H]2CC[C@@]1(C)O[C@@H]31` [arteannuin B]: the EC50 in the data set with SARS-CoV-2 was 10.3 ± 1.12 µM; in the data set with GX_P2V [1] (setting [7]), 8.84 µM; in the data set on SARS-CoV-2 isolate WIV04 (setting [8]), 12 µM. Moreover, in the data set on SARS-CoV-2 isolate WIV04, the SI is 9.72. In addition, the “expression of viral NP protein” value in the data set with GX_P2V NP protein is “achieved the same inhibitory effect”. Besides, the CC50 in [2] turned out to be 111 µM; in data set [2] (Vero E6 cells), 117 µM.

With `CC(C)C1=CC(=O)[C@@](C)([C@H]2[C@H](O)C[C@@]3(C)[C@@H]4CC=C5[C@@H](CC[C@@H](O[C@@H]6O[C@H](CO)[C@@H](O)[C@H](O)[C@H]6O[C@@H]6O[C@@H](C)[C@H](O)[C@@H](O)[C@H]6O)C5(C)C)[C@]4(C)C(=O)C[C@]23C)O1` [Picfeltarraenin IB], in data set [5], the “cytotoxic activity in vitro” value was 1. Picfeltarraenin IB and Picfeltarraenin IA displayes no cytotoxic activity in vitro human tumor cell line panel.

Regarding `COc1ccc(-c2cc(=O)c3c(OC)c(OC)c(OC)c(OC)c3o2)cc1OC` [Nobiletin], the solubility in water entry in [4] (vendor library annotation, ref Murakami A, et al. Cancer Res, 2000) is “Nobiletin is a natural polymethoxylated flavone isolated from citrus peels with anti-inflammatory and anti-tumor activities. Nobiletin is practically insoluble (in water) and an extremely weak acidic compound (based on its pKa)”.
